Like-named read-outs stand apart in the source and are kept apart here.
Biological target: T1, human cathepsin K (Homo sapiens, UniProt P43235)
T1 construct: The proform of cathepsin K was converted to mature cathepsin K by brief exposure to pH 4; made in house; host or cells: baculovirus; Trichoplusia ni High Five cells (virus raised in Sf-9)
T1 sequence (P43235 115-329): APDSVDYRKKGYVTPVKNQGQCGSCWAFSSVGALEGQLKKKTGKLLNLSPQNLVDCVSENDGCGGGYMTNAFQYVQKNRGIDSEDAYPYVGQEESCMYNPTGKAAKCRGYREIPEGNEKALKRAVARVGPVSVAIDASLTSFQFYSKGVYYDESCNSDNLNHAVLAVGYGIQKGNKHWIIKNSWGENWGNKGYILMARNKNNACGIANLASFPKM
Assay: Cathepsin K inhibition assay, human recombinant enzyme, fluorogenic substrate Cbz-Phe-Arg-AMC
Assay type: biochemical
Details: read-out: h Cat K IC50
How it was run: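 Recombinant human cathepsin K (baculovirus/insect-cell proform, activated at pH 4 with 5 mM L-cysteine) assayed with 10 μM Cbz-Phe-Arg-AMC, 10% DMSO, 30 °C.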

CCCC[C@H](NC(=O)O[C@@H]1CN(C(=O)Nc2ccc(C(F)(F)F)cc2)CC1(C)C)C(=O)C(=O)Nc1ccn[nH]1 [Example 71, (3S)-4,4-dimethyl-1-{[4-(trifluoromethyl)anilino]carbonyl}pyrrolidinyl (1S)-1-[oxo(1H-pyrazol-5-ylamino)acetyl]pentylcarbamate]
IC50 (Table 1, human cathepsin K): 0.1 to 1 nM
IC50 (Table 2, human cathepsin K): 0.1 to 1 nM

CCCC[C@H](NC(=O)O[C@@H]1CN(c2nnc(C(F)(F)F)s2)CC1(C)C)C(=O)C(=O)Nc1ccn[nH]1 [Example 82, (3S)-4,4-Dimethyl-1-[5-(trifluoromethyl)-1,3,4-thiadiazol-2-yl]pyrrolidinyl-(1S)-1-[oxo(1H-pyrazol-5-ylamino)acetyl]pentylcarbamate]
IC50 (Table 1, human cathepsin K): 0.1 to 1 nM
IC50 (Table 2, human cathepsin K): 0.1 to 1 nM

From US7402606B2, “Derivatives of 1-(oxoaminoacetyl) pentylcarbamate as cathepsin K inhibitors for the treatment of bone loss” (SmithKline Beecham Corporation, priority 2002, dated 2008)
